Data on one molecule can be found in PubChem BioAssay AID2801 (Sanford-Burnham Center for Chemical Genomics, 2010).

pIC50: −log10 of the molar value.

The subject of this assay is TNFa-induced NF-kB reporter cells, inhibition. Put plainly: TNFa-triggered NF-kB activation inhibitors, SAR follow-up, cell-based, set 3 (AID 2801).

For `CCCCn1c(SCC(=O)Nc2nnc(CC)s2)nc2c1c(=O)n(C)c(=O)n2C`, the pIC50 is 4.89.
